tested on: ddy-mice; experiment: Antihypoxic activity (survival time of mice under reduced pressure, 190 mmHg); type: in vivo; conditions: Mus musculus, ip, injected intraperitoneally usually 30 minutes before the test, desiccator at 190 mmHg, effective = mean survival time above 140 sec and p<0.05 vs control
Procedure: Six ddy-mice weighing 20 - 27 g were used. Test compound was dissolved in saline or suspended in 0.5 % carboxymethylcellulose and injected intraperitoneally usually 30 minutes before the test at a dosage of 0.1 ml per 10 g of the bodyweight. Two mice were placed in a desiccator, the inside pressure of which was lowered to 190 mmHg within 2 to 3 seconds, and the survival time as well as the time interval between the start of the evacuation and the cessation of respiration was determined. The survival time of the mice which lived longer than 300 seconds was taken as 300 sec.

| SMILES | minimal effective dose |
| --- | --- |
| CCC(C(=O)Nc1ccc(O)cc1)c1ccccc1 (stereo not shown) [Known product (see page 2), reference compound] | > 30 mg/kg |
| CC[C@]12CCCN3CCc4c(n(c5ccccc45)[C@@](O)(C(=O)OC)C1)[C@@H]32 [Vincamine, reference compound] | < 30 mg/kg |
| NS(=O)(=O)c1ccc(NC(=O)C(CCc2ccccc2)c2ccc(Cl)cc2)cc1 (stereo not shown) [Example 38] | < 10 mg/kg |
| NC(=O)c1cccc(NC(=O)C(CCCc2ccccc2)c2ccccc2)c1 (stereo not shown) [Example 18] | < 10 mg/kg |
| NC(=O)c1cccc(NC(=O)C(Cc2ccccc2)c2ccccc2)c1 (stereo not drawn) [Example 1, alpha-benzyl-N-(3-carbamoylphenyl)benzeneacetamide] | < 10 mg/kg |
| COc1ccc(Cc2nccc3cc(OC)c(OC)cc23)cc1OC [Papaverine, reference compound] | < 30 mg/kg |
| CN(C)CCCOC1(Cc2ccccc2)CCCCCC1 [Bencyclane, reference compound] | < 30 mg/kg |
| O=C(Nc1cccc(O)c1)C(Cc1ccccc1)c1ccccc1 (stereo not shown) [Example 7] | < 10 mg/kg |
| Cc1ccc(C(CCc2ccccc2)C(=O)Nc2ccc(S(N)(=O)=O)cc2)cc1 (stereo not shown) [Example 40] | < 10 mg/kg |
| O=C(Nc1cccc(O)c1)C(CCCc1ccccc1)c1ccccc1 (stereo not shown) [Example 23] | < 10 mg/kg |

From EP0184822A2, “Novel anilide derivatives of substituted arylacetic acids” (SUMITOMO PHARMACEUTICALS COMPANY, LIMITED, priority 1984, dated 1986)
